Assay results taken from PMC10471729, “Luvadaxistat: A Novel Potent and Selective D-Amino Acid Oxidase Inhibitor Improves Cognitive and Social Deficits in Rodent Models for Schizophrenia” (Neurochemical Research, 2023).

Target: T1, D-amino acid oxidase (DAAO) (Mus musculus, UniProt P18894)
T1 construct: gene Dao
Assay: cell-based

T1 sequence (P18894 whole entry): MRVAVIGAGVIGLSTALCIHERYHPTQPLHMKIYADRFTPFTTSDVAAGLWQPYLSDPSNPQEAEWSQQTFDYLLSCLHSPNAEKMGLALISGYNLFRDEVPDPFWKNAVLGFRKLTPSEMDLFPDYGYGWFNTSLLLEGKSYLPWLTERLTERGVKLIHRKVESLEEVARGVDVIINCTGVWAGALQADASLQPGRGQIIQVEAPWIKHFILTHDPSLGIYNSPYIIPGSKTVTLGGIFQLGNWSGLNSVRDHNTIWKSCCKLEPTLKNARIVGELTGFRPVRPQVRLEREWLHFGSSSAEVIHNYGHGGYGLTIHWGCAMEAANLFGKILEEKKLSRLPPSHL

Q: Which IC50 does the source give for `O=c1[nH]nc(CCc2ccc(C(F)(F)F)cc2)cc1O` [luvadaxistat] here?
A: 5.1 nM
